“Also recorded” adds a separate entry of the source.
Assays:
[1] = Solid state stability assessment under accelerated conditions; type: physicochemical; settings: for XRPD after solid state physical stability assessment: 8 weeks under stress conditions; for chemical and physical stability after 8 weeks: 25° C./60% RH (open), 40° C. (closed), 60° C. (closed), 40° C./75% RH (open)
Method: Solid state stability assessment of AMG 176 Form 1 was conducted at 25° C./60% RH (open), 40° C. (closed), 60° C. (closed), and 40° C./75% RH (open) accelerated conditions to determine the chemical and physical stability of AMG 176.
Solid state stability assessment of AMG 176 amorphous material and Form 1 was conducted at 25° C./60% RH (open), 40° C. (closed), 60° C. (closed), and 40° C./75% RH (open) accelerated conditions to determine the chemical and physical stability of AMG 176.

Moisture sorption (DVS) = type: physicochemical; settings: for hygroscopicity (in words): DVS up to 95% RH; for XRPD of the post-DVS material: after DVS cycle
Method: Moisture Sorption: Moisture sorption data was collected at 25° C. using a VTI vapor sorption analyzer. A sample size of approximately 4-10 mg was used in a standard platinum pan. Hygroscopicity was evaluated from 5 to 95% RH in increments of 5% RH. Data for adsorption and desorption cycles were collected. Equilibrium criteria were set at 0.001% weight change in 10 minute with a maximum equilibration time of 180 minutes.

[2] = Dog PK studies, amorphous versus crystalline suspension; type: in vivo; settings: AMG 176 dosed as an amorphous suspension as compared to the crystalline suspension
Excerpt: AMG 176 Form 1 has acceptable pharmaceutical and physical properties, can be scaled to kilogram quantities, and can be compounded during drug product formulating as an in situ sodium salt to achieve desired drug concentrations to enable IV delivery. AMG 176 can also be converted to amorphous material to support oral dosing, if desired, depending on the dosing range. […] While improved exposures were observed by dosing the amorphous material, the exposures would likely plateau if gram level doses are need for oral delivery.

[3] = DVS, 25° C., adsorption 5% to 95% RH

Row | XRPD after solid state physical stability assessment [1] | chemical and physical stability after 8 weeks [1] | water vapor uptake (weight gain) between 5% and 95% RH (Moisture sorption (DVS); [3]) [wt %] | water vapor uptake (weight gain) between 5% and 95% RH (Moisture sorption (DVS); DVS, 25° C., adsorption 5% to 95% RH, listed as amorphous form of AMG 176) | weight gain at 95% RH (Moisture sorption (DVS); DVS, 95% relative humidity) [%] | weight lost upon desorption (Moisture sorption (DVS); DVS, desorption cycle, likely loss of residual DCM and/or water) [%] | XRPD of the post-DVS material (Moisture sorption (DVS)) | XRPD of the post-DVS material (Moisture sorption (DVS); listed as amorphous form of AMG 176) | improvement of absorption [2] [×] | XRPD after solid state physical stability assessment ([1]; listed as crystalline Form 1 of AMG 176) | water vapor uptake between 5% and 95% RH (Moisture sorption (DVS); [3]) [%] | Structure (SMILES) | hygroscopicity (in words) (Moisture sorption (DVS))
1 | Crystallization not observed | physically and chemically stable | 0.95 | about 0.95 wt % | 0.95 | 1.59 | consistent with amorphous material | consistent with amorphous material | – | – | – | CO[C@H]1/C=C/C[C@H](C)[C@@H](C)S(=O)(=O)NC(=O)c2ccc3c(c2)N(C[C@@H]2CC[C@H]21)C[C@@]1(CCCc2cc(Cl)ccc21)CO3 [Amorphous AMG 176] | limited hygroscopicity
2 | – | – | – | – | – | – | – | – | 10 | – | – | CO[C@H]1/C=C/C[C@H](C)[C@@H](C)S(=O)(=O)NC(=O)c2ccc3c(c2)N(C[C@@H]2CC[C@H]21)C[C@@]1(CCCc2cc(Cl)ccc21)CO3 [AMG 176, (1S,3′R,6′R,7′S,8′E,11′S,12′R)-6-chloro-7′-methoxy-11′,12′-dimethyl-3,4-dihydro-2H,15′H-spiro[naphthalene-1,22′-[20]oxa[13]thia[1,14]diazatetracyclo[14.7.2.0^3,6.O^19,24]pentacosa[8,16,18,24]tetraen]-15′-one 13′,13′-dioxide] | –
3 | – | physically and chemically stable | – | – | – | – | no form change | – | – | Form conversion was not observed | 0.3 | CO[C@H]1/C=C/C[C@H](C)[C@@H](C)S(=O)(=O)NC(=O)c2ccc3c(c2)N(C[C@@H]2CC[C@H]21)C[C@@]1(CCCc2cc(Cl)ccc21)CO3 [AMG 176 Form 1] | low hygroscopicity; also recorded: non-hygroscopic
